Experimental data reported in PubChem BioAssay (NCI).
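Tested at 5 concentrations; 48 h exposure; 96-well plates; endpoints linearly interpolated, else capped at highest concentration. TGI: concentration producing complete growth inhibition.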

Experiments:
Test in all cases: NCI tumour cell line growth inhibition, 48 h
[1] = system: MDA-MB-435
[2] = system: SK-MEL-5 melanoma
[3] = system: SN12C renal
[4] = system: U251 CNS
[5] = system: NCI-H23 lung
[6] = system: SK-MEL-28 melanoma
[7] = system: SNB-19 CNS
[8] = system: SF-268 CNS
[9] = system: 786-0 renal
[10] = system: RXF 393 renal
[11] = system: MOLT-4 leukemia
[12] = system: OVCAR-8 ovarian
[13] = system: K-562 leukemia
[14] = system: NCI-H522 lung
[15] = system: IGROV1 ovarian
[16] = system: MDA-MB-231 breast
[17] = system: MDA-N
[18] = system: SK-MEL-2 melanoma
[19] = system: NCI-H226 lung
[20] = system: SK-OV-3 ovarian

Row | SMILES | TGI [1] [µM] | TGI [2] [µM] | TGI [3] [µM] | TGI [4] [µM] | TGI [5] [µM] | TGI [6] [µM] | TGI [7] [µM] | TGI [8] [µM] | TGI [9] [µM] | TGI [10] [µM] | TGI [11] [µM] | TGI [12] [µM] | TGI [13] [µM] | TGI [14] [µM] | TGI [15] [µM] | TGI [16] [µM] | TGI [17] [µM] | TGI [18] [µM] | TGI [19] [µM] | TGI [20] [µM]
1 | O=C(CN1CCN(Cc2ccccc2)CC1)c1ccc2[nH]c(=O)oc2c1 | > 100 | > 100 | > 100 | > 100 | > 100 | > 100 | > 100 | > 100 | > 100 | > 100 | > 100 | > 100 | > 100 | > 100 | > 100 | > 100 | > 100 | > 100 | > 100 | > 100
2 | C=CCOC(=O)N1[C@H]2C#C/C=C\C#C[C@]3(O)C(=O)C[C@H](C)[C@]24O[C@]43C2=CC(=O)C=CC21OC (stereo partly drawn) | > 100 |  | 67.4 | > 100 | > 100 | > 100 | > 100 | > 100 | 38.7 | 47.7 | 52.9 | 47.9 | > 100 | 48.5 | 67.3 | 85.9 | > 100 | 66.5 | > 100 | > 100
3 | CCCCCCCC1C(C)c2c([nH]c3ccccc23)C2C(=O)N(c3ccc(OC)cc3)C(=O)C21 (stereo not drawn) | > 8.39 | > 10 | > 5.95 | 3.97 | 6.99 | > 10 | 9.92 | > 10 | 3.28 | 8.14 | > 10 | 6.02 | > 6.39 | > 10 | > 10 | > 7.84 | > 10 | > 10 | > 8.21 | > 10
4 | Cc1c2c(c(C)n1-c1ccccc1)C(=O)N(CCCCN1CCN(c3ccccc3)CC1)C2=O | 40.8 | 13.6 | 43.9 | 84.9 | 48.5 |  | > 100 | > 100 | 19 | > 100 | 26.2 | 31.4 | 37.6 | 39.4 | > 100 | 24.1 | 31.2 | 62.6 | 40.3 | > 100
5 | COc1ccc(/C=C2\CCC(C)C3=C(c4ccc(OC)c(OC)c4)C(C#N)=C(N)OC32)cc1OC (stereo not drawn) | 10.1 | 4.66 | 28.2 | > 100 | 13.6 | 31.7 | > 100 | > 100 | 25.1 | 3.99 |  | > 100 | > 100 |  | 9.45 | 17.5 | 12.1 | 5.63 | 9.83 | 36.4
6 | O=c1cc(NCCCCCO)[nH]c(=O)[nH]1 | > 100 | > 100 | > 100 | > 100 | > 100 | > 100 | > 100 | > 100 | > 100 | > 100 | > 100 | > 100 | > 100 | > 100 | > 100 | > 100 | > 100 | > 100 | > 100 | > 100
7 | NC(Cc1ccc(S(=O)(=O)O)cc1)C(=O)NC(CCCCNC(=O)NCCCCC(NC(=O)C(N)Cc1ccc(S(=O)(=O)O)cc1)C(=O)NC(Cc1ccc(S(=O)(=O)O)cc1)C(=O)O)C(=O)NC(Cc1ccc(S(=O)(=O)O)cc1)C(=O)O (stereo not drawn) | > 100 | > 100 | > 100 | > 100 | > 100 | > 100 |  | > 100 | > 100 | > 100 | > 100 | > 100 | > 100 | > 100 | > 100 | > 100 | > 100 | > 100 | > 100 | > 100
8 | CCCCCC(C)(C)CCC(=O)OC1OC(COC2OC(COC3OC(CO)C(O)C(O)C3O)C(O)C(O)C2O)C(O)C(O)C1O (stereo not drawn) | > 100 | > 100 | > 100 | > 100 | > 100 |  | > 100 | > 100 | > 100 | > 100 | > 100 | > 100 | > 100 | > 100 | > 100 | > 100 | > 100 | > 100 | > 100 | > 100
9 | Cc1cc(N(CCC#N)CCC#N)ccc1/C(N=Nc1ccc(Cl)cc1)=N\NC(=O)c1cc(Cl)ccc1O | > 100 | > 100 | > 100 | > 100 | > 100 |  | 75.4 | 86.2 | > 100 | 74.5 | > 100 | > 100 | > 100 | 37 | > 100 | > 100 | > 100 | > 100 | 85.1 | 97.9
10 | COc1cc(C2SC(N)=Nc3c2c(C)nn3C(=O)c2ccccc2O)cc(OC)c1OC (stereo not drawn) | > 10 | > 10 | > 10 | > 10 | > 10 | > 10 | > 10 | > 10 | > 10 | > 10 | > 10 | > 10 | > 10 |  | 9.01 | > 10 | > 10 | > 10 | > 10 | > 10
11 | COC(=O)c1c2c(cc3c1CC1(Cc4cc5c(c(C=O)c4C1)CCCC5)C3)CCCC2 (stereo not drawn) | > 100 | > 100 | > 100 | > 100 | > 100 |  |  |  | > 100 | > 100 | > 100 | > 100 | 85.3 | > 100 | > 100 | > 100 | > 100 | 85.1 | > 100 | > 100
12 | N#CN=C(N)c1sc2nc3c(c(-c4ccc(Br)cc4)c2c1N)CCCC3 | 13.6 | 38.3 | 58.1 | > 100 | 66.9 | > 100 | > 100 | > 100 | 50.2 | 60 | > 100 | 86.8 | > 100 |  |  | 70.8 | 34.4 | 32.8 | 42 | > 100
13 | Cc1ccc(S(=O)(=O)N2CCCN(S(=O)(=O)c3ccc(C)cc3)CCN(S(=O)(=O)c3ccc(C)cc3)CCCSCC2)cc1 | > 100 | > 100 | > 100 | > 100 | > 100 | > 100 | > 100 | > 100 | > 100 | > 100 | > 100 | > 100 | > 100 |  | > 100 | > 100 | > 100 | > 100 | > 100 | > 100
14 | O=C(Nc1nnc(-c2ccccc2)o1)C(SC(=S)N1CCCCC1)c1ccccc1 (stereo not drawn) | 73.3 | 28.2 | 42 | 87.2 | 30.7 | > 100 | > 100 |  | 87.5 | > 100 | > 100 | > 100 | > 100 | 97.6 | > 100 | > 100 | 69.9 | 51.1 | 93.5 | > 100
15 | COc1cc2c(/C=C3/C(=O)N(C)c4ccccc43)c(Cl)[nH]c2cc1C | 0.038 | 7.41 | 7.99 | 1.57 | 1.55 | > 100 | 14.2 | 3.09 | 16.5 | 70.5 | 11.8 | 3.77 |  | 0.518 | 2.7 | 3.68 | 0.153 | 5.31 | > 100 | 0.629
16 | O=C(Nn1c(-c2ccccc2)nc2ccccc2c1=O)c1ccc(CS)cc1 | > 100 | > 100 | > 100 | > 100 | > 100 | > 100 | > 100 | > 100 | 50.5 | > 100 | 62.4 | > 100 | > 100 | > 100 | 88.3 | 96.1 | > 100 |  | > 100 | > 100
17 | Cc1ccc(C2=Nc3cc(C)c(Cl)cc3S(=O)(=O)NN2)cc1 | > 100 | > 100 | > 100 | > 100 | > 100 | > 100 | > 100 | > 100 | > 100 | > 100 | > 100 | > 100 | > 100 | > 100 | > 100 | > 100 | > 100 |  | > 100 | > 100
18 | COc1ccccc1/C=C/C1=NN(c2cccc(S(=O)(=O)O)c2)C2(C1)SCC(=O)N2c1nc2ccccc2s1 (stereo not drawn) | > 100 | > 100 | > 100 | > 100 | > 100 | > 100 | > 100 | > 100 | > 100 | > 100 | > 100 | > 100 | > 100 | > 100 | > 100 | > 100 | > 100 | > 100 | > 100 | 
19 | O=S(=O)(O)c1c(Cl)cc(O)c2ncccc12 | > 100 | > 100 | > 100 | > 100 | > 100 | > 100 | > 100 |  | > 100 | > 100 | > 100 | > 100 | > 100 |  | > 100 | > 100 | > 100 | > 100 | > 100 | 
20 | Cc1ccc2c3c1O[C@H]1c4[nH]c5ccccc5c4C[C@@]4(O)[C@@H](C2)N(C)CC[C@]314 | 28.3 | 28.2 | 39.4 | 29.5 | 40.4 |  | 34.3 | 34.7 | 29.8 | 22.7 | 36.7 | 34.8 | 36.8 | 36 | 34.9 | 28.5 | 33.3 | 35.3 | 23.1 | 
21 | O=C1/C(=C/c2ccccc2)CCCC1CN1CCCCC1 (stereo not drawn) | 4.26 | 15.6 | 18.5 | 27 | 16.7 | 3.77 | 29.1 | 3.59 | 4.26 | 3.76 | > 100 | 4.13 |  | 2.05 | 8.38 | 3.89 | 4.13 | 15.8 | 9.87 | 31
22 | CCOC(=O)C1(C(N)=O)C(=O)c2ccncc2C1=O (stereo not drawn) | > 100 | > 100 | > 100 | > 100 | > 100 | > 100 | > 100 | > 100 | > 100 | > 100 |  | > 100 | > 100 | > 100 | > 100 | > 100 | > 100 | > 100 | > 100 | > 100
23 | CC1=NCCN=C(C)C1N=Nc1ccc2nc(C)[nH]c2c1 | 22.3 |  | 30.9 | > 100 | 44.2 | 24.2 | 28.7 | 46.4 | 33.5 | 40.1 | 23.6 | 85.1 | 20.1 | 61.8 | 70.7 | 31.2 | 29.3 | 46.3 | 44.1 | 39.2
